Values joined by “and” are separate entries in the source; they are usually repeats but may differ in a detail not shown here. Equal values may be shown once. Active and inactive are the calls of the source.

A short description of series [1]: HEK-293T viability loss after treatment – luminescence, T-cell screen hits, cytotoxicity control for TCR NF-kB inhibitor project, dose response (AID 489026).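 Also: cells exposed to compound about 14 hours before the viability readout.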 Format: functional, cell-based.
The subject of the next series is Jurkat. Nature of the series: SAR Analysis of small molecule inhibitors of T-cell specific antigen receptor-induced NF-kB activation in a Jurkat cell line using a luminescence assay - Set 2. [Related pubchem assays (depositor defined):AID435003, AID435012, AID465]. In kind it is functional, cell-based. The note with it: Homo sapiens.
Series [2] has as its target T1, Microphthalmia-associated transcription factor (Homo sapiens, UniProt O75030).
T1 sequence (O75030 whole entry): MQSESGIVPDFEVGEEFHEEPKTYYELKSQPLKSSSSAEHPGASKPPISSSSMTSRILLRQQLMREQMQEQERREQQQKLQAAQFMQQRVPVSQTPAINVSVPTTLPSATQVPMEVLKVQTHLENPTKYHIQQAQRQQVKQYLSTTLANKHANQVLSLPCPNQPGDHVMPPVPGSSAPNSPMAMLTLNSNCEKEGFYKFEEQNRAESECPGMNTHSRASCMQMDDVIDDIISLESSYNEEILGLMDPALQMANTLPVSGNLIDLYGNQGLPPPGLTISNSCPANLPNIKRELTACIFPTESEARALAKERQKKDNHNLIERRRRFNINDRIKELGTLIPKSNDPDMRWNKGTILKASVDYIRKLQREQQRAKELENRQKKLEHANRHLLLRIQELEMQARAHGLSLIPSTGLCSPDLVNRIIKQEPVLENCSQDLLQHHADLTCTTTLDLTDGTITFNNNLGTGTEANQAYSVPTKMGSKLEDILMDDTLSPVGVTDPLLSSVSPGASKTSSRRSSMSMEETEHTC
The experiment in a line: reducers of TRPM1 reporter luminescence, concentration series – cell-based, SK-MEL-5, cherry-picked, set 3, MITF inhibitor project, dose response (AID 493073).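 Also: SK-MEL-5 melanoma cells with luciferase driven by the MITF target TRPM1 promoter.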 In kind it is functional.

For series [3], the system named is HEK293. Nature of the series: SAR Analysis of small molecule inhibitors of T-cell specific antigen receptor-induced NF-kB activation in a HEK-293T cell line using a luminescence assay - Set 2. [Related pubchem assays (depositor defined):AID435003, AID435012, AID489026]. Format: functional, cell-based. The following applies: Homo sapiens.
For series [4], the system named is HEK293. Nature of the series: HEK293T cell viability loss, resazurin readout – resazurin fluorescence, cytotoxicity control for NF-kB activator project, SAR follow-up (AID 493251). Format: functional, cell-based. The following applies: Homo sapiens. (Alamar Blue is a resazurin reagent that responds to reducing activity.)
The target of series [5] is T2, Cytochrome P450 2D6 (Homo sapiens, UniProt P10635).
T2 sequence (P10635 whole entry): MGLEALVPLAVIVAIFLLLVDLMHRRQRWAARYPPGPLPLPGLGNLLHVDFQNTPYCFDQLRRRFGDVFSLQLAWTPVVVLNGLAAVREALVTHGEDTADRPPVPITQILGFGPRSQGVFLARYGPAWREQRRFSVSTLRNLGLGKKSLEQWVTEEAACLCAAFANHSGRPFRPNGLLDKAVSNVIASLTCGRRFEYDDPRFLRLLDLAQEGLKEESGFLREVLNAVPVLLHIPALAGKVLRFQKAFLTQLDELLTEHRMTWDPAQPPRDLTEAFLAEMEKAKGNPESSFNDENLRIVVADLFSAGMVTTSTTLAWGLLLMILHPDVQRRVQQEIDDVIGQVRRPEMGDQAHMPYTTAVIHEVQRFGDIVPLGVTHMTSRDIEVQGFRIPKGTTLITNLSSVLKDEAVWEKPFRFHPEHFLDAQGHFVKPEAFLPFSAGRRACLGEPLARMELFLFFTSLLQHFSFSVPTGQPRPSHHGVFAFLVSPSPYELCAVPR
Series [6] can be described thus: viability of PTEN-deleted HCT116 cells – cell-based, HCT116 PTEN knockout, dose response (AID 1047).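 Also: HCT116 colon tumor cells with PTEN knocked out; cells exposed to compound for 60 hours before readout; potency for loss of cell viability measured by luminescence.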 Format: functional.
For series [7], the target named is T3, Apoptotic protease-activating factor 1 (Homo sapiens, UniProt O14727).
T3 sequence (O14727 whole entry): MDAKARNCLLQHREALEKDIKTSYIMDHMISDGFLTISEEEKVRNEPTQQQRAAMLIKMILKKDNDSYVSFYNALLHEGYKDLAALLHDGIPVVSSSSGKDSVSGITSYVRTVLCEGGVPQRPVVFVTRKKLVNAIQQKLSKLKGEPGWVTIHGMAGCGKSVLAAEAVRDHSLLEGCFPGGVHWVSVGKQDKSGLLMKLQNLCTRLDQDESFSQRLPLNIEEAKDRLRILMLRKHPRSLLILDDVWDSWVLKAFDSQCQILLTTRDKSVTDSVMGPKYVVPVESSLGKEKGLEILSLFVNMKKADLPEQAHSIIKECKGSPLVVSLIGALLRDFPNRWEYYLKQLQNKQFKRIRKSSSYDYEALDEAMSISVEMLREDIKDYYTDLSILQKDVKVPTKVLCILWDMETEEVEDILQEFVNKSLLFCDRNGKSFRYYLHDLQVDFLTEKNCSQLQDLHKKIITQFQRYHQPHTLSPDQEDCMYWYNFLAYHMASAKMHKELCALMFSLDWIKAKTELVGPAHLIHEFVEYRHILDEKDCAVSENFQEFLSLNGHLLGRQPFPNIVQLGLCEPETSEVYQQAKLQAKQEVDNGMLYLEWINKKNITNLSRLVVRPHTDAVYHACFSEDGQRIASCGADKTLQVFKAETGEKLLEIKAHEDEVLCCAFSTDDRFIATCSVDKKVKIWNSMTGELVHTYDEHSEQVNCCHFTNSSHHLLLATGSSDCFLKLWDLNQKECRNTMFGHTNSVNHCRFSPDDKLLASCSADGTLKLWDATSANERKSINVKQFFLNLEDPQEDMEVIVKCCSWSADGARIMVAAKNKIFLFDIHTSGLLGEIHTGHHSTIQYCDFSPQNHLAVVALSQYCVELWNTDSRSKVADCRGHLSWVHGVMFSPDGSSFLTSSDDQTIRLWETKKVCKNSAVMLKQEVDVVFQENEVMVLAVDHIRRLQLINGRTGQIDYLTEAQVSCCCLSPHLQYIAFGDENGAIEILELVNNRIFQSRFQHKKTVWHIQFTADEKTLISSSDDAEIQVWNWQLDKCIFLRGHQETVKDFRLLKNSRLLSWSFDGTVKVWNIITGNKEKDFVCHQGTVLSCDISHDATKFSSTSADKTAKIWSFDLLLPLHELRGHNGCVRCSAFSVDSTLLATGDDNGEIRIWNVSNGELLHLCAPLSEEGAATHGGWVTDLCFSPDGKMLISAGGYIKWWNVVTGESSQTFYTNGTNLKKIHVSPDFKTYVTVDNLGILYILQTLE
Nature of the series: activation of Apaf-1 mediated apoptosis – fluorescent, uHTS hits, dose response (AID 588554). In kind it is functional.

Series [8] is described as follows: viability of HCT116 lacking mutant beta-catenin – cell-based, human colon tumor, dose response (AID 1045).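 Also: HCT116 colon tumor cells with beta catenin knocked out; cells exposed to compound for 60 hours.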 In kind it is functional.
In series [9] the target is T2, Cytochrome P450 2D6. The source holds these as a separate data set.
A further series has as its target T4, Cytochrome P450 1A2 (Homo sapiens, UniProt P05177).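 Also: PubChem cytochrome P450 panel assay, CYP1A2 panel member.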
T4 sequence (P05177 whole entry): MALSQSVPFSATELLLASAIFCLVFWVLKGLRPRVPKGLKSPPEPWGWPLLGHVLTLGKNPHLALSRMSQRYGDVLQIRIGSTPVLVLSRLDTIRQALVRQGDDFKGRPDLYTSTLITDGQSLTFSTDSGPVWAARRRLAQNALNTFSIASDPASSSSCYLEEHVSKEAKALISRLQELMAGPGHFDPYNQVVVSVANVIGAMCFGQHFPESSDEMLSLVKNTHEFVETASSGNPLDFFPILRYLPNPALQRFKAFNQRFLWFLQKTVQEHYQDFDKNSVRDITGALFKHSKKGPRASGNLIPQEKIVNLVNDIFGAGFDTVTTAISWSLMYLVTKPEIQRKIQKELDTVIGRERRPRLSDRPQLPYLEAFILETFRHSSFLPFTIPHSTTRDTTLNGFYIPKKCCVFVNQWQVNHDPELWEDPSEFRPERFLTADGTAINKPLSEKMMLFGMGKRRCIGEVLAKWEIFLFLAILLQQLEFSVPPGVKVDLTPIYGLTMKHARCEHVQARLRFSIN

The target in series [10] is T5, Mannose-6-phosphate isomerase (Homo sapiens, UniProt P34949).
T5 sequence (P34949 whole entry): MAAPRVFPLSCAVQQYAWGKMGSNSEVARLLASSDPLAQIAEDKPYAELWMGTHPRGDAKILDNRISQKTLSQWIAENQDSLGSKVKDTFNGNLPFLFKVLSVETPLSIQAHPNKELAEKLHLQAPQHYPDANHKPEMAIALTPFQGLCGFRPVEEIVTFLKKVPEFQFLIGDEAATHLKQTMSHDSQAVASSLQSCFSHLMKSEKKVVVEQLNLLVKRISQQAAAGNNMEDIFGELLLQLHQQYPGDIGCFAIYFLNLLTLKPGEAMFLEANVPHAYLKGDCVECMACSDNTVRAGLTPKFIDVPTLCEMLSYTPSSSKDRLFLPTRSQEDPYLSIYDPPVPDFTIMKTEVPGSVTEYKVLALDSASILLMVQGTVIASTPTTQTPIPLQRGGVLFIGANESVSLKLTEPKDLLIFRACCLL
Nature of the series: phosphomannose isomerase inhibition – biochemical, fluorescence intensity, confirmation (AID 1535).

The next series deals with Phosphomannomutase 2 (Homo sapiens, UniProt O15305). The experiment in a line: Counter screen SAR assay for PMM2 inhibitors via a fluorescence intensity assay. [Related pubchem assays (depositor defined):AID1545, AID1574]. Background: The purpose of a counterscreen is to sort out artefacts and off-target activity.
Chain of Phosphomannomutase 2 (O15305 whole entry): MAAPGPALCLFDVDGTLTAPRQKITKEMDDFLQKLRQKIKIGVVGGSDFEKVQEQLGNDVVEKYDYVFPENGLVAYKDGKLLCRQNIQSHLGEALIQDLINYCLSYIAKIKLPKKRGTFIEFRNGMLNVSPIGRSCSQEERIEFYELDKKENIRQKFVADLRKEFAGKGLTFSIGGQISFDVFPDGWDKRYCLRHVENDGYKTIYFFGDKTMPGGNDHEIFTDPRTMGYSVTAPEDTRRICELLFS
Another series has as its target Cytochrome P450 2C19 (Homo sapiens, UniProt P33261). Nature of the series: Cytochrome panel assay with activity outcomes. Panel member name: p450-cyp2c19 Compounds with AC50 equal or less than 10 uM are considered active. In kind it is functional. The note with it: read-out: AC50.
A short description of series [11]: restored growth of temperature-sensitive Burl-1 yeast – whole organism, S. cerevisiae, Burl-1 ts mutant, luminescence, counter-screen for SUMOylation pathway inhibitor project, dose response (AID 463199). Format: functional.
The target in series [12] is T6, Tyrosine-protein phosphatase non-receptor type 22 (Homo sapiens, UniProt Q9Y2R2).
T6 sequence (Q9Y2R2 whole entry): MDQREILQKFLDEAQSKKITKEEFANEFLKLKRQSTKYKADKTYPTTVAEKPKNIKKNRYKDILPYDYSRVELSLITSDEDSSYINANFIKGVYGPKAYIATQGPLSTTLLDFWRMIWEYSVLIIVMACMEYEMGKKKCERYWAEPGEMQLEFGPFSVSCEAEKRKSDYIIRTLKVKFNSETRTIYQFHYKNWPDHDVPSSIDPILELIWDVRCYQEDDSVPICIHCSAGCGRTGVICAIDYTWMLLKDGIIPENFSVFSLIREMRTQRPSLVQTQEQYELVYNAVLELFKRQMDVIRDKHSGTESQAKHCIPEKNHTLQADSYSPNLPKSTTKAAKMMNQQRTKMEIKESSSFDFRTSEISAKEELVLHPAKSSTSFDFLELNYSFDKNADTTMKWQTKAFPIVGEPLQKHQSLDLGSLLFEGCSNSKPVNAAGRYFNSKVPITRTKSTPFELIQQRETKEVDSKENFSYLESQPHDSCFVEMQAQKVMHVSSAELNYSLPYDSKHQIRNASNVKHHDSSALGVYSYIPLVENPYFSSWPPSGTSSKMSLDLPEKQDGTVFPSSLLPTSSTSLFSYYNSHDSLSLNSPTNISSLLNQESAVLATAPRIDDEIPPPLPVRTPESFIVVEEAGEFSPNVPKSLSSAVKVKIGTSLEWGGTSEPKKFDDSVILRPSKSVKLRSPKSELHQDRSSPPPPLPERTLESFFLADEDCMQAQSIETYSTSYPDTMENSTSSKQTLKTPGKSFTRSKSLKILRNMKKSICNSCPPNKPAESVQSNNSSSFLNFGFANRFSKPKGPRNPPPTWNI
The experiment in a line: inhibition of lymphoid tyrosine phosphatase LYP – biochemical, pCAP fluorogenic substrate, fluorescence, set 3, SAR follow-up (AID 449727). Format: functional.

In series [13] the target is G-protein coupled receptor 55 (Homo sapiens, UniProt Q9Y2T6). The experiment in a line: blockers of GPR55 signalling, imaged – imaging, image-based, counter-screen for GPR35 antagonist project, SAR follow-up (AID 2397). Format: functional.
Chain of G-protein coupled receptor 55 (Q9Y2T6 whole entry): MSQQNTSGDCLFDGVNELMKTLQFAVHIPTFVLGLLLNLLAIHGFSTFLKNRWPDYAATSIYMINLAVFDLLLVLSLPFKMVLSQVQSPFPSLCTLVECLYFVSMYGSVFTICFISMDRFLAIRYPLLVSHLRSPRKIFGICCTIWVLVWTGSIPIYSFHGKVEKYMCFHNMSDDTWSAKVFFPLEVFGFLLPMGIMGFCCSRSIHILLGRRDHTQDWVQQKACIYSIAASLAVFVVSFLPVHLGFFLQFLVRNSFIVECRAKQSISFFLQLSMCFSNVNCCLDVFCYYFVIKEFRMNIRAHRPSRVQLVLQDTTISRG
The target of series [14] is Tyrosine-protein phosphatase non-receptor type 12 (Homo sapiens, UniProt Q05209). Nature of the series: SAR Selectivity Analysis of small molecule inhibitors of PEST using pCAP in a fluorescence assay. [Related pubchem assays (depositor defined):AID1779, AID1784, AID2135]. In kind it is functional.
Chain of Tyrosine-protein phosphatase non-receptor type 12 (Q05209 whole entry): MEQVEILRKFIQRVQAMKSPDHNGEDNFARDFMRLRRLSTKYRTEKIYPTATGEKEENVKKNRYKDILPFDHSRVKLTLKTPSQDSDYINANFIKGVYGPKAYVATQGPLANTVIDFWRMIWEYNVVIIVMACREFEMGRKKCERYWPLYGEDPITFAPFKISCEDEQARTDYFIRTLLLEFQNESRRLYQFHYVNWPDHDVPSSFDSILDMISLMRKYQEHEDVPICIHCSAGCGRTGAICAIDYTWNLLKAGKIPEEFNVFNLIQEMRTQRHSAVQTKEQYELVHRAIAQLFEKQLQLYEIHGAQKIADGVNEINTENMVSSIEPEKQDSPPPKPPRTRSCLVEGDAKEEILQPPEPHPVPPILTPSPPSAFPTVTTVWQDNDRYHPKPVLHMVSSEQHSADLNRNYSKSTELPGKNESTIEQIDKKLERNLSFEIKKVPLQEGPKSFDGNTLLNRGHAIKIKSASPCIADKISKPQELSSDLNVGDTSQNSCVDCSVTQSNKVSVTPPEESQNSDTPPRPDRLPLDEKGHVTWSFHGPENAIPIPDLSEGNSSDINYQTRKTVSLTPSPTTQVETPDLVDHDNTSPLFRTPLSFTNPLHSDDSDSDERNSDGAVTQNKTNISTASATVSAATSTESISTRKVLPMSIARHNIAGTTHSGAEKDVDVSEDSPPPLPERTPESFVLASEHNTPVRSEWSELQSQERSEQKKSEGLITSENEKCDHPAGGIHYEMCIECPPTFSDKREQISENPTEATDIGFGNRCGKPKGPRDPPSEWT
Series [15] concerns the target T6, Tyrosine-protein phosphatase non-receptor type 22. The experiment in a line: SAR LYP1 Fluorescent Assay using OMFP substrate for In Vitro dose response studies - Set 3. [Related pubchem assays (depositor defined):AID1779, AID1784, AID2140, AID2686]. In kind it is functional.

Chain of Cytochrome P450 2C19 (P33261 whole entry): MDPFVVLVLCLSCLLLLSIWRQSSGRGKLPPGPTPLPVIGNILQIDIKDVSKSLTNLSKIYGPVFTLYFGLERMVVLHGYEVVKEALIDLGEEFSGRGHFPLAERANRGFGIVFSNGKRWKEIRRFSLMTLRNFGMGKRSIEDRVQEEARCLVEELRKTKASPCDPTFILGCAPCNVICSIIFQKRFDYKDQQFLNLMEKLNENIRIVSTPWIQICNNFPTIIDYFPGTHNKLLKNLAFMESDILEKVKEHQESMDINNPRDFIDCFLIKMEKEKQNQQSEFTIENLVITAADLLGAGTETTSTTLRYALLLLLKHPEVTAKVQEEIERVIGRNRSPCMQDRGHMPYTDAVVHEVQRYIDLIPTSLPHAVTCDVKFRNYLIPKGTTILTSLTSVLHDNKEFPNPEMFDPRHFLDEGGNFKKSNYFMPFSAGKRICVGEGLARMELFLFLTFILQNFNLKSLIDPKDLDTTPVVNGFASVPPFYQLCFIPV

In general, IC50 refers to the concentration at which inhibition is half-maximal. For orientation: AC50 means the midpoint of the concentration-response curve, whichever way the signal moves. With `Cc1cc(C)cc(NC(=O)c2ccc([N+](=O)[O-])o2)c1`, the IC50 in series [1] is > 80 µM (inactive); in the series with Jurkat, 0.85 µM (active); in the series with HEK293 [3] it was 21.8 µM (inactive); in the series with HEK293 [4], 43.4 µM (inactive). In [2], the AC50 is 16.6 µM (active).

With `Cc1ncc([N+](=O)[O-])n1CC(C)O` (stereo not given) [SECNIDAZOLE], the AC50 result on Cytochrome P450 2D6 [5] is listed as “inconclusive”.

By EC50 is commonly meant the concentration needed to bring the measured effect to its halfway point. `CCOc1ccc(C(=O)/C=C/Nc2ccc(S(=O)(=O)N=C(N)N)cc2)cc1`: the results for the concentration for a half-maximal effect (EC50) in series [6], in series [7] and in [8] were 16.3 µM (active), 6.28 µM (active) and 21.8 µM (active), respectively.

For the compound `Cc1cccc(C)c1N=C1NCCCS1` [XYLAZINE], the AC50 on Cytochrome P450 2D6 [9] was 39.8 µM (inconclusive) and 10 µM (inconclusive); at Cytochrome P450 1A2, “inactive”.

Regarding `OCc1ccccc1/N=c1\ssnc1Cl`, the results for the IC50 (in series [10]; on Phosphomannomutase 2) were 35.8 µM (active) and > 100 µM (inactive), respectively.

In the case of `Cc1ccc(S(=O)(=O)N2CCOCC2)cc1NC(=O)COC(=O)CCC(=O)c1cccs1`, the AC50 on Cytochrome P450 2C19 was 39.8 µM (inconclusive); at Cytochrome P450 2D6 [9], 31.6 µM (inconclusive); in [11], 87.5 µM (active).

Consider `CCOC(=O)c1ccc(NC(=O)CCCN2C(=O)/C(=C/c3ccccc3)SC2=S)cc1`, for which the IC50 in series [12] is > 100 µM (inactive); in [13] it was > 32 µM (inactive); in series [14], 94.2 µM (active); in [15], > 100 µM (inactive).

Source of the values: ChEMBL document CHEMBL1201862, “PubChem BioAssay data set” (2004).
